# Results from patent publication US20090270435A1 (priority 2006, published 2009).
# pIC50: −log10 of the molar value. Structures can show the parent of a compound that is named as a salt.
# Target: T1, ACC1 from rat liver (Rattus norvegicus, UniProt P11497)
# T1 construct: The livers (for ACC1 preparation) or skeletal muscle tissue (for ACC2 preparation) are removed; from tissue; host or cells: liver of male CD rats (fasted, then fed a high sucrose diet)
# Assay: Direct inhibition of ACC1 activity (14C-bicarbonate incorporation)
# Type: biochemical
# Settings: ACC1 from rat liver
# Experimental: [1] Preparation of ACC1 and ACC2.
# Male CD rats weighing 150-200 g are fasted for 2 days and then fed a high sucrose diet (AIN-76A rodent diet; Cat # D10001, Research Diets Inc., New Brunswick, N.J.), for 3 days at which time they are sacrificed by CO2 asphyxiation. The livers (for ACC1 preparation) or skeletal muscle tissue (for ACC2 preparation) are removed, rinsed in ice-cold phosphate-buffered saline (PBS), and homogenized in 5 volumes of homogenization buffer (50 mM potassium phosphate, pH 7.5, 10 mM EDTA, 10 mM 2-mercaptoethanol, 2 mM benzamidine, 0.2 mM phenylmethylsulfonylfluoride (PMSF), 5 mg/L each leupeptin, aprotinin, and antitrypsin) in a Waring® blender for 1 minute at 4° C. All subsequent operations are carried out at 4° C. The homogenate is made 3% with respect to polyethylene glycol (PEG) by the addition of 50% PEG solution and centrifuged at 20,000×g for 15 minutes. The resulting supernatant is adjusted to 5% PEG with the addition of 50% PEG solution and stirred for 5 minutes. The pellet (contains ACC activity) is collected by centrifugation at 20,000×g for 20 minutes, rinsed with Ice-cold doubly distilled water to remove excess PEG and re-suspended in one-fourth the original homogenate volume with homogenization buffer. Ammonium sulfate (200 g/liter) is slowly added with stirring. After 45 minutes the enzyme is collected by centrifugation for 30 minutes at 20,000×g, re-suspended in 10 ml of 50 mM HEPES, pH7.5, 0.1 mM DTT, 1.0 mM EDTA, and 10% glycerol and desalted on a Sephadex™ G-25 column (2.5 cm-x 50 cm) (Pharmacia, Piscataway N.J. now GE Healthcare) […] equilibrated with the same buffer. The desalted enzyme preparation is stored in aliquots at −70° C. Immediately prior to use, frozen ACC1 or ACC2 aliquots are thawed, diluted to 500 μg/ml in buffer containing 50 mM HEPES, pH7.5, 1.0 mM MgCl2, 10 mM tripotassium citrate, 2.0 mM dithiothreitol (DTT), and 0.75 mg/ml fatty acid-free bovine serum albumin (BSA) and pre-incubated at 37° C. for 30 minutes.
# [2] Measurement of ACC inhibition. The procedures for measuring ACC1 inhibition and ACC2 inhibition are identical except for the source of the isozyme. For measurement of ACC activity and assessment of ACC inhibition, test compounds are dissolved in dimethylsulfoxide (DMSO) and 1 μL aliquots are placed in 0.5 ml polypropylene tubes. Control tubes contain 1 μL of DMSO alone. Tubes are incubated at 37° C. in a constant temperature water bath. […] The reaction is then initiated by the addition of 10 μL of preincubated ACC fraction prepared as described above. After 7 minutes the reaction is terminated by the addition of 50 μL of 6N HCl and a 150 μL aliquot of the reaction mixture is transferred to glass scintillation vials and evaporated to dryness at 90° C. for at least 1 hour. The dried vials are then cooled, 0.5 ml of water and 5.5 ml of Ready Safe liquid scintillation fluid (Beckman Coulter Inc., Fullerton, Calif.) are added, and the radioactivity is determined using a liquid scintillation counter. Tubes that received HCl before ACC served as blanks.
row,pIC50,Molecule
1,6.79,"Cc1cc2c(cc1C)C(=O)CC1(CCN(C(=O)c3cccc4cn[nH]c34)CC1)O2 [Ex. H1, 1′-(1H-indazol-7-ylcarbonyl)-6,7-dimethylspiro[chromene-2,4′-piperidin]-4(3H)-one]"
2,6.54,"6-chloro-1′-[(7-chloro-1H-indazol-5-yl)carbonyl]-7-fluorospiro[chromene-2,4′-piperidin]-4(3H)-one [Ex. B13]"
3,6.91,"COc1ccc2c(c1)OC1(CCN(C(=O)c3cc(C)c4[nH]ncc4c3)CC1)CC2=O [Ex. A24, 7-methoxy-1′-[(7-methyl-1H-indazol-5-yl)carbonyl]spiro[chromene-2,4′-piperidin]-4(3H)-one]"
4,6.07,"Cc1ccc2c(c1)OC1(CCN(C(=O)c3cccc4cn[nH]c34)CC1)CC2=O [Ex. H12, 1′-(1H-indazol-7-ylcarbonyl)-7-methylspiro[chromene-2,4-piperidin]4(3H)-one]"
5,6.63,"Cc1cc(C(=O)N2CCC3(CC2)CC(=O)c2cc(C#N)ccc2O3)cc2cn[nH]c12 [Ex. A31, 1′-[(7-methyl-1H-indazol-5-yl)carbonyl]-4-oxo-3,4-dihydrospiro[chromene-2,4-piperidine]+carbonitrile]"
6,6.74,"O=C1CC2(CCN(C(=O)c3ccc4c(Cl)c[nH]c4c3)CC2)Oc2ccc(Cl)cc21 [Ex. L7, 6-chloro-1′-[(3-chloro-1H-indol-6-yl)carbonyl]spiro[chromene-2,4′-piperidin]-4(3H)-one]"
7,5.79,COc1cccc2c1C(=O)CC1(CCN(C(=O)c3cccc4cn[nH]c34)CC1)O2 [Ex. H16]
8,5.95,"Cc1cc(C(=O)N2CCC3(CC2)CC(=O)c2cc(S(C)(=O)=O)ccc2O3)cc2cn[nH]c12 [Ex. A35, 1′-[(7-methyl-1H-indazol-5-yl)carbonyl]-6-(methylsulfonyl)spiro[chromene-2,4′-piperidin]-4(3H)-one]"
9,6.59,"O=C1CC2(CCN(C(=O)c3cc(Cl)c4[nH]ncc4c3)CC2)Oc2ccc(C(F)(F)F)cc21 [Ex. B12, 1′-[(7-chloro-1H-indazol-5-yl)carbonyl]-6-(trifluoromethyl)spiro[chromene-2,4′-piperidin]-4(3H)-one]"
10,7.40,"COC(=O)c1ccc2c(c1)C(=O)CC1(CCN(C(=O)c3cc(C)c4[nH]ncc4c3)CC1)O2 [Ex. A11, methyl 1-[(7-methyl-1H-indazol-5-yl)carbonyl]-4-oxo-3,4-dihydrospiro[chromene-2,4-piperidine]-6-carboxylate]"
11,6.17,"Cc1cc2c(cc1C)C(=O)CC1(CCN(C(=O)c3cccc4c3ncn4C(C)C)CC1)O2 [Ex. L21, 1′-[(1-isopropyl-1H-benzimidazol-4-yl)carbonyl]-6,7-dimethylspiro[chromene-2,4′-piperidin]-4(3H)-one trifluoroacetic acid salt]"
12,6.40,"Cc1cc(C(=O)N2CCC3(CC2)CC(=O)c2ccc(-c4ccccc4)cc2O3)cc2cn[nH]c12 [Ex. A34, 1′-[(7-methyl-1H-indazol-5-yl)carbonyl]-7-phenylspiro[chromene-2,4′-piperidin]-4(3H)-one]"
13,7.49,"Cc1cc2c(cc1Br)C(=O)CC1(CCN(C(=O)c3cc(C)c4[nH]ncc4c3)CC1)O2 [Ex. A8, 6-bromo-7-methyl-1′-[(7-methyl-1H-indazol-5-yl)carbonyl]spiro[chromene-2,4′-piperidin]-4(3H)-one]"
14,5.50,"Cc1cc2c(cc1C)C(=O)CC1(CCN(C(=O)c3ccc4c(c3)nc(C)n4C)CC1)O2 [Ex. L28, 1′-[(1,2-dimethyl-1H-benzimidazol-5-yl)carbonyl]-6,7-dimethylspiro[chromene-2,4′-piperidin]-4(3H)-one]"
15,5.93,"Cc1cc2c(cc1C)C(=O)CC1(CCN(C(=O)c3ccc4c(c3)ncn4C)CC1)O2 [Ex. L23, 6,7-dimethyl-1′-[(1-methyl-1H-benzimidazol-5-yl)carbonyl]spiro[chromene-2,4′-piperidin]-4(3H)-one trifluoroacetic acid salt]"
16,6.65,"Cc1cc2c(cc1Cl)OC1(CCN(C(=O)c3cccc4cn[nH]c34)CC1)CC2=O [Ex. H2, 7-chloro-1′-(1H-indazol-7-ylcarbonyl)-6-methylspiro[chromene-2,4′-piperidin]-4(3H)-one]"
17,6.72,"Cc1cc2c(cc1C)C(=O)CC1(CCN(C(=O)c3ccc4c(c3)[nH]c(=O)n4C)CC1)O2 [Ex. L32, 6,7-dimethyl-1′-[(1-methyl-2-oxo-2,3-dihydro-1H-benzimidazol-5-yl)carbonyl]spiro[chromene-2,4′-piperidin]-4(3H)-one]"
18,7.53,"CNC(=O)c1ccc2c(c1)C(=O)CC1(CCN(C(=O)c3cc(C)c4[nH]ncc4c3)CC1)O2 [Ex. A5, N-methyl-1′-[(7-methyl-1H-indazol-5-yl)carbonyl]-4-oxo-3,4-dihydrospiro[chromene-2,4′-piperidine]-6-carboxamide]"

row,Molecule,pIC50
1,"Cc1cc2c(cc1Cl)C(=O)CC1(CCN(C(=O)c3ccc4[nH]ccc4c3)CC1)O2 [Ex. L8, 6-chloro-1′-(1H-indol-5-ylcarbonyl)-7-methylspiro[chromene-2,4′-piperidin]-4(3H)-one]",6.34

# Same assay, conditions: Table of Examples M1-M36
row,pIC50,Molecule
1,6.63,"O=C1CC2(CCN(C(=O)c3cccc(-c4cc[nH]n4)c3)CC2)Oc2cc(Cl)ccc21 [Ex. M15, 7-chloro-1′-[3-(1H-pyrazol-3-yl)benzoyl]spiro[chromene-2,4′-piperidin]-4(3H)-one]"
2,6.24,"CN(C)C(=O)c1ccc2c(c1)C(=O)CC1(CCN(C(=O)c3cccc(-c4cc[nH]n4)c3)CC1)O2 [Ex. M29, N,N-dimethyl-4-oxo-1′-[3-(1H-pyrazol-3-yl)benzoyl]-3,4-dihydrospiro[chromene-2,4′-piperidine]-6-carboxamide]"
3,6.85,"Cc1cc2c(cc1Cl)OC1(CCN(C(=O)c3cccc(-c4cc[nH]n4)c3)CC1)CC2=O [Ex. M7, 7-chloro-6-methyl-1′-[3-(1H-pyrazol-3-yl)benzoyl]spiro[chromene-2,4′-piperidin]-4(3H)-one]"
4,6.43,"COc1c(Cl)ccc2c1C(=O)CC1(CCN(C(=O)c3cccc(-c4cc[nH]n4)c3)CC1)O2 [Ex. M18, 6-chloro-5-methoxy-1′-[3-(1H-pyrazol-3-yl)benzoyl]spiro[chromene-2,4′-piperidin]-4(3H)-one]"
5,6.36,"COc1cc2c(c(OC)c1OC)C(=O)CC1(CCN(C(=O)c3cccc(-c4cc[nH]n4)c3)CC1)O2 [Ex. M21, 5,6,7-trimethoxy-1′-[3-(1H-pyrazol-3-yl)benzoyl]spiro[chromene-2,4′-piperidin]-4(3H)-one]"
6,6.69,"COC(=O)c1ccc2c(c1)C(=O)CC1(CCN(C(=O)c3cccc(-c4cc[nH]n4)c3)CC1)O2 [Ex. M11, methyl 4-oxo-1′-[3-(1H-pyrazol-3-yl)benzoyl]-3,4-dihydrospiro[chromene-2,4′-piperidine]-6-carboxylate]"

# Same assay, conditions: Table of Examples O1-O4
row,pIC50,Molecule
1,6.34,"COc1cc(Cl)cc2c1C(=O)CC1(CCN(C(=O)c3cccc(-c4ccn[nH]4)c3)CC1)O2 [Ex. O3, 7-chloro-5-methoxy-1′-[3-(1H-pyrazol-5-yl)benzoyl]spiro[chromene-2,4′-piperidin]-4(3H)-one]"

# Same assay, conditions: Table of Examples P1-P15
row,pIC50,Molecule
1,5.97,"CCOc1ccc(-c2cc[nH]n2)cc1C(=O)N1CCC2(CC1)CC(=O)c1cc(Cl)c(C)cc1O2 [Ex. P9, 6-chloro-1′-[2-ethoxy-5-(1H-pyrazol-3-yl)benzoyl]-7-methylspiro[chromene-2,4′-piperidin]-4(3H)-one]"
2,5.15,"CCc1nc(-c2cccc(C(=O)N3CCC4(CC3)CC(=O)c3cc(C)c(C)cc3O4)c2)no1 [Ex. P15, 6,7-Dimethyl-1′-[3-(5-ethyl-1,2,4-oxadiazol-3-yl)benzoyl]spiro[chromene-2,4′-piperidin]-4(3H)-one]"
3,> 5.52,"Cc1cc2c(cc1C)C(=O)CC1(CCN(C(=O)c3cccc(-c4ccncn4)c3)CC1)O2 [Ex. P13, 6,7-Dimethyl 1′-[3-(pyrimidin-4-yl)benzoyl]spiro[chromene-2,4′-piperidin]-4(3H)-one]"
